The series in a line: Human HepG2 cell viability assay in 384 well format. Format: toxicity, cell-based. Also noted: dose 125 nL, time 70.5 hour; cytotoxicity at 70.5 h: concentration not given beside the values. Conditions: HepG2 cells, read-out: Inhibition.
Consider `COc1ccc(N(C)C(=O)C2CN(C)CCO2)cc1Cl` (stereo not drawn), for which the cytotoxicity at 70.5 h turned out to be 8.7%. `CN1CCOC(C(=O)N(C)c2ccc3c(c2)CCO3)C1` (stereo not drawn): the cytotoxicity at 70.5 h is -18.1%. `CN(C)c1cccc(C(=O)N2CCCc3cc(OC(F)(F)F)ccc32)c1`: the cytotoxicity at 70.5 h is -9.8%. Then `CCCOc1ccc(CN)c(OC(F)F)c1`, with -3.13%; and `COc1ccnc(N2CCC(OCCN3CCCCC3)C2)n1` (stereo not drawn), with -2.49%; and `Cc1nnc(CN2CCCCC2c2nc(-c3ccccc3)no2)s1` (stereo not drawn), with -8.42%. With `CN(C)c1ccc(C(=O)N2CCCc3cc(OC(F)(F)F)ccc32)cn1` the figure was -5.84%. Then `CCCN1CCCN(C(=O)c2ccc(Oc3cccnc3)cc2)CC1`, with -8.42%. As to `O=C(CCS(=O)(=O)C1CCCC1)N1CCCC(n2ccnc2)C1` (stereo not drawn), the cytotoxicity at 70.5 h came to 6.79%. Regarding `CC(C)(C)C(O)CN1CCN(Cc2cccc(C#N)c2)CC1` (stereo not drawn), the cytotoxicity at 70.5 h amounted to 14.7%.

Consider `CC(C)S(=O)(=O)CC(=O)N1CCCC(n2ccnc2)C1` (stereo not drawn), for which the cytotoxicity at 70.5 h was -0.47%.

With `Cn1cc(C(=O)N2CCN(c3ccc(F)cc3)CC2)ccc1=O`, the cytotoxicity at 70.5 h was 2.77%. With `CC(C)(C)C(O)CN1CCN(Cc2ccc(C#N)cc2)CC1` (stereo not drawn) the figure was -6.98%; with `CCCc1cc(C(=O)NC(c2ccccc2)c2n[nH]c(C)n2)[nH]n1` (stereo not drawn), -7.51%; with `CCC(=O)N1CCN(C(=O)NCc2c(C)cc(C)cc2C)CC1`, -11.6%. With `NC(=O)Nc1cc(F)ccc1SCC(F)F` the figure was -8.84%; with `CCC(CO)NC(=O)Nc1cc(F)ccc1SCC(F)F` (stereo not drawn), -11.1%. With `CN(c1cccnc1N1CCCC1)S(=O)(=O)c1cccnc1` the figure was 3.33%. Take `Cc1cnn(-c2ccc(S(=O)(=O)N(C)CC(C)(CO)CO)cc2F)c1`: the cytotoxicity at 70.5 h was 17.1%. With `COCCNC(=O)CCNc1ccc(Cl)cn1` the figure was -6.53%; with `COc1cccc([S+]([O-])CC(=O)NCc2cc(F)cc(F)c2)c1` (stereo not drawn), -1.69%.

For `c1cnc2nc(N3CCc4c(ncn4C4CC4)C3)ccc2n1`, the cytotoxicity at 70.5 h is -6.09%. Then `CN(CCN1CCN(c2ccccc2)CC1)C(=O)Nc1ccncc1`, with -3.63%; and `Cc1nc(CN2CCCN(CC(=O)N(C)CCC#N)CC2)no1`, with -9.21%. For `C[S+]([O-])c1ccc(CNc2ccc(F)cc2OC(F)F)cc1` (stereo not drawn), the cytotoxicity at 70.5 h is -0.988%. With `OC1(CNCc2ccc(F)c(C(F)(F)F)c2)CCSCC1` the figure was -7.48%; with `CCCC(C)N(C)Cc1nnc(-c2ccc(Br)s2)o1` (stereo not drawn), -4.09%. Then `Cc1cnn(C2CCCN(C(=O)CN(C)c3cnccn3)C2)c1` (stereo not drawn), with -2.8%; and `CCOCCC(=O)NC(Cc1ccc(C)cc1)c1ccccn1` (stereo not drawn), with 0.116%; and `CCCn1nc(C(=O)NCCc2nnc3n2CCC3)ccc1=O`, with 1.09%.

As for `CC(C1CC1)N(C)Cc1nnc(-c2ccc(Br)s2)o1` (stereo not drawn), the cytotoxicity at 70.5 h is -2.75%. Take `CN(Cc1ccc(Cl)s1)C(=O)NCCC(=O)N1CCCCCC1`: the cytotoxicity at 70.5 h is -4.9%. Then `Cc1ccc(S(=O)(=O)Nc2cccnc2O)cc1C`, with -0.331%. Then `C=C(C)CN(CC)C(=O)c1cc(Cl)ccc1NS(C)(=O)=O`, with -0.344%; and `O=C1NCCCCC1NC(=O)C1(c2cccc(C(F)(F)F)c2)CC1` (stereo not drawn), with 0.452%. `O=C(OCCNc1ncccn1)c1ccc(Br)s1`: the cytotoxicity at 70.5 h is -0.709%. With `COc1ccc(CCNC(=O)C2CCOC2)c(Cl)c1` (stereo not drawn) the figure was -2.75%; with `CNC(=O)c1ccc(NC(=O)NC(C)CCc2cccn2C)c(C)c1` (stereo not drawn), -0.342%. Then `Cc1cc(C)n(C2CCCN(C(=O)CN(C)C3CC3)C2)n1` (stereo not drawn), with -3.88%. Then `CC(C)CCN(C(=O)Nc1cccc(C(=O)N(C)C)c1)C1CC1`, with -7.58%; and `Cc1nnc(C(C)N2CCCN(Cc3noc(C4CC4)n3)CC2)o1` (stereo not drawn), with 13.7%. For `O=C(Cn1ccc(=O)[nH]c1=O)NCc1cccnc1OCC(F)(F)F`, the cytotoxicity at 70.5 h was -10.1%. With `Cn1cnnc1C1CCCN(c2nc3ccccc3o2)C1` (stereo not drawn) the figure was 0.708%; with `CC(C)CN(C(=O)Nc1cccc(C(=O)N(C)C)c1)C1CC1`, -10.3%; with `COc1ccc(OC)c(C(=O)Nc2cccnc2-n2cncn2)c1`, -10.9%. For `CC(C)c1ccc(S(=O)(=O)NC2CCN(CC(F)(F)F)C2)cc1` (stereo not drawn), the cytotoxicity at 70.5 h is 16.7%. Then `CC(C)c1noc(C(C)N2CCN(Cc3noc(C4CC4)n3)CC2)n1` (stereo not drawn), with -10.9%. For the molecule `CCN(Cc1ccoc1)C(=O)Nc1ccccc1CN(C)C(C)=O`, the cytotoxicity at 70.5 h stood at 22%. Take `CC(C(=O)Nc1cccc(F)c1)N(C)CCN1CCOCC1` (stereo not drawn): the cytotoxicity at 70.5 h was -4.4%.

For `CCCc1cc(N(CCOC)CC(F)F)n2ncnc2n1`, the cytotoxicity at 70.5 h came out at 18.6%. `O=S(=O)(NC1CCN(CC(F)(F)F)C1)c1cc(F)cc(F)c1` (stereo not drawn): the cytotoxicity at 70.5 h came to 12.7%. With `COCCN(CC(F)F)c1cc(COC)nc2ncnn12` the figure was -9.69%.

Take `CCc1oc(C(=O)OC)cc1Cn1cccc(C(F)(F)F)c1=O`: the cytotoxicity at 70.5 h was -1.62%.

For the molecule `COC(=O)c1sc(C(NC(=O)c2ccccc2)C2CC2)nc1C` (stereo not drawn), the cytotoxicity at 70.5 h was -3.65%. For `CSc1ncccc1C(=O)NC(C)c1cccc(N2CCOC2=O)c1` (stereo not drawn), the cytotoxicity at 70.5 h is -10.4%. Turning to `CC(C)(C)C(NC(=O)CCS(C)(=O)=O)c1ccc(F)cc1F` (stereo not drawn), the cytotoxicity at 70.5 h was -6.93%. On to `CC(C)(C)C(NC(=O)CCCS(C)(=O)=O)c1ccc(F)cc1F` (stereo not drawn), for which the cytotoxicity at 70.5 h was -0.26%. Then `COc1cccc2c1CCCCN2C(=O)c1oc(C)nc1C`, with 0.154%; and `CC(C)N(CC(=O)Nc1cccc(C#N)c1)C1CC1`, with -4.01%. Then `Cc1nc(CN(C)S(=O)(=O)c2ccccc2Br)no1`, with -3.75%; and `CCc1noc(C(C)N2CCCN(Cc3noc(C4CC4)n3)CC2)n1` (stereo not drawn), with -13.5%. Then `Cc1cnn(CC(C)NCC(=O)Nc2ccc(Cl)cn2)c1` (stereo not drawn), with -2.39%; and `CN(CC(=O)NC(C)(C)C)C(=O)c1cccn1CCc1ccccc1`, with 5.51%. For the molecule `Cc1ccc(-c2csc(-c3cccc(C(=O)O)c3)n2)cc1`, the cytotoxicity at 70.5 h came to 19.5%.

For `COc1ccccc1OCCNC(=O)NCC(C)C`, the cytotoxicity at 70.5 h was -12.4%.

Take `NC(=O)CSc1ccccc1NCc1nc(Cc2ccccc2)no1`: the cytotoxicity at 70.5 h was -6.14%. With `Cc1cc(CNC(=O)NCC(O)c2cccc(F)c2)no1` (stereo not drawn), the cytotoxicity at 70.5 h is -10.8%. Take `Cc1ccc(CN2CCC(CNC(=O)Cn3cncn3)CC2)cc1`: the cytotoxicity at 70.5 h is -6.33%. For `COc1ccc(CN2CCN(Cc3nccn3C)C(C)C2)cc1F` (stereo not drawn), the cytotoxicity at 70.5 h is -9.42%. Then `CC(C)CC1COCCN1C(=O)Cc1cccs1` (stereo not drawn), with -4.92%. With `CCc1nc(CN(C)C2CCN(Cc3ccc(Cl)s3)C2)no1` (stereo not drawn) the figure was 8.41%; with `Fc1ccc(CNCc2nnc3n2CC(C(F)(F)F)CC3)cc1` (stereo not drawn), -13.6%. Take `COc1cc2c(cc1CNCc1ccnc(-n3cccn3)c1)OC(C)C2` (stereo not drawn): the cytotoxicity at 70.5 h is -12.6%.

These data come from ChEMBL document CHEMBL3507680, “University of Dundee, Gates Library screen for HepG2 cell viability”.
